Where no end group is shown, it is not given here.
How the values were obtained:
FN1 fibroblasts [1] = test: Ultrastructure of fibroblasts by transmission electron microscopy (TEM); assay type: cell-based, human; details: 1% FBS, 50 ng/ml, 48 hours
From the text: Severe morphological changes in normal fibroblasts are observed after serum deprivation conditions consistent with those of apoptotic cell death. […] TEM provides ultra-structural evidence about the nature of cell death (Kulkarni, G. V. and C. A. McCulloch, Serum deprivation induces apoptotic cell death in a subset of Balb/c 3T3 fibroblasts. J Cell Sci, 1994. 107 (Pt 5): p. 1169-79).
Cells were washed 3 times with PBS and gently collected in a tube with the help of a cell scraper. The cell suspension was centrifuged, and the cell button re-suspended in a solution of 3% glutaraldehyde and 2% paraformaldehyde diluted in sodium cacodylate. The cell button was post-fixed in 1% solution of osmium tetroxide for 1 hour, washed with PBS and distilled water and dehydrated in a graded ethanol series (30, 60, 70, 80 and 100%). Finally, the epoxy resin was mixed with warm ethanol (1:1) for infiltration, and only the resin was used for the incorporation of cells (60° C./48 h). Ultrathin sections (50 nm) were cut with an ultramicrotome (Leica Ultracut™ UCT) and stained with 5% uranyl acetate in 50% ethanol and 2% aqueous solution of citrate. The obtained sections were photographed using a TEM (LEO™ 906E, Zeiss, […]) at an accelerating voltage of 80 kV.

laminin = test: Extracellular matrix molecules by fluorescence microscopy; assay type: cell-based, human; details: FN1 cells, 50 ng/ml, 48 h, 10% FBS
From the text: (§1) Previous studies have reported the importance of extracellular matrix components for maintaining cell survival of serum-deprived cells and that survival is enhanced by cell-cell contact. To confirm the synthesis of extracellular matrix molecules, fibroblast cultures were marked with antibodies specific for laminin and fibronectin following treatment with the synthetic peptide.
(§2) After treatment, the medium was removed and cells were washed with PBS and fixed with 3.7% paraformaldehyde for 10 minutes. Triton X-100 (0.1%) was added for 15 minutes for permeabilization of the plasma membrane, followed by addition of the primary antibody and incubation for 12 hours (overnight) in the dark at 4° C. The cells were washed with PBS, the secondary antibody was added and the cells were kept for 1 hour at room temperature in the dark. Antibodies were diluted according to the manufacturer's recommendation. After washing, the […] cell nuclei were stained with 4′,6-diamidino-2-phenylindole (DAPI) reagent (Invitrogen) and slides were mounted on coverslips containing 4 μl of antifade solution (Vectashield™, Vector-H1000, that serves to preserve fluorescence). Cells were viewed with an Axio™ Imager A1 fluorescence microscope (Carl Zeiss, Germany).
(§3) Primary antibodies in blocking buffer: 10% FBS, 1% BSA in TBS (0.1% Triton X-100 in PBS):
Rabbit polyclonal to Laminin alpha 4 (abcam): 1/500

FN1 cells = test: Detection of intracellular reactive oxygen and nitrogen species (ROS); assay type: cell-based, human; details: for ROS production: serum-deprived (1% FBS)
Experimental: The detection of reactive species was performed by the ROS Detection Kit (Enzo Life Sciences, Plymouth Meeting, Pa.) according to the manufacturer's instructions. This assay allows detecting ROS production in living cells by flow cytometry. The dye detection reagent reacts with hydrogen peroxide, peroxynitrite and hydroxyl radicals. FN1 cells at a density of 10^6/ml were plated and cultured in 6-well plates for 24 hours in incubator containing 5% CO2 at 37° C. […] Then, the cells were washed with wash buffer supplied by the manufacturer and centrifuged at 1500 rpm for 10 minutes. The supernatant was discarded and the cell button resuspended in 200 μl of PBS. The fluorescence was determined at λ=485 nm for excitation and emission λ=590 nm for a FACScalibur™ flow cytometry system using CellQuest™ software with the acquisition of 10,000 events having as parameters FSC (size) and SSC (granularity/complexity) linear scale and FL1/FL2 on logarithmic scales. The results were expressed as the mean±SEM (standard error of the mean) of 3 independent experiments.

[2] = test system: human dermal fibroblasts (FN1); test: Cell proliferation by CFDA-SE staining, flow cytometry; assay type: cell-based; details: FN1 cells; for proliferation / cytoprotection (CFDA-SE staining): 1% FBS, 48 hours; for proliferation rate (CFDA-SE staining): 10% FBS, 48 h, p<0.001 versus control 10% FBS
Experimental: Quantitative assessment of cell proliferation was performed by staining cells with carboxyfluorescein succinimidyl ester (CFDA-SE), as described previously (Asquith, B., et al., Quantifying lymphocyte kinetics in vivo using carboxyfluorescein diacetate succinimidyl ester (CFSE). Proc Biol Sci, 2006. 273(1590): p. 1165-71; Lyons, A. B., Analysing cell division in vivo and in vitro using flow cytometric measurement of CFSE dye dilution. J Immunol Methods, 2000. 243(1-2): p. 147-54). CFDA-SE is a lipophilic dye which reacts with amino groups of peptides and proteins, forming a stable amide linkage, which can be detected using flow cytometry analysis. The CFDA-SE passively diffuses into cells. It is colorless and nonfluorescent until its acetate groups are cleaved by intracellular esterases to produce a highly fluorescent, amine reactive succinimidyl ester of carboxyfluorescein, which is well conserved and can be fixed with aldehyde fixatives. The excess reagent and unconjugated by products passively diffuse into the extracellular environment where they can be washed away. When parent cells divide, CFDA-SE dye is equally distributed to the daughter cells, which therefore have half of the fluorescence intensity of the parents. The reduction of fluorescence intensity of cell generations in cell proliferation is easily detected by flow cytometry.
For the assay, human dermal fibroblasts (FN1) cells were seeded in six-well plates (1×10^4 cells/well), incubated with […] CFDA—SE diluted in PBS, and cultured at 37° C. with 5% CO2 for 15 minutes protected from light, according to the manufacturer's instructions (Vybrant® CFDA SE Cell Tracer Kit, MolecularProbes). […] Subsequently, the cells were trypsinized and the cell buttons resuspended in 300 μl of FACS buffer with 2% paraformaldehyde and kept in the refrigerator until the moment of reading. Cell proliferation by CFDA—SE was estimated by the reduction in cell fluorescence. Fluorescence was determined for excitation at λ=492 nm and for emission at λ=517 nm (10000 events per sample) in a FACScalibur™ flow cytometry system (Becton and Dickson) using the CellQuest™ software. The parameters FSC (size) and SSC (granularity/complexity) was detected in linear scale and FL1-H on a logarithmic scale. Proliferation was analyzed using the program ModFit LT™ 2.0 (Verity Software House, Topsham, Me., USA). The figures are expressed as the average ±standard error of the mean (SEM) of 5 independent experiments (Student's t test).

fibronectin = test: Extracellular matrix molecules by fluorescence microscopy; assay type: cell-based, human; details: FN1 cells, 50 ng/ml, 48 h, 10% FBS
From the text: as §1, §2, §3
Rabbit polyclonal to Fibronectin (abcam): 2 μg/ml

[3] = test system: Human umbilical vein endothelial cells (HUVEC); test: MTT cytotoxicity and cell viability assay; assay type: cell-based; details: 72 h; for cell viability (MTT), significance relative to untreated control (1% FBS): p<0.01
Experimental: For in vitro cell culture tests, the peptide (previously dissolved in water and stored at −20° C.) was resuspended, at the desired concentration, in culture medium supplemented with fetal bovine serum (FBS). The concentration of FBS was selected depending on the requirements of each experiment.
The MTT method was used (Mosmann, T., Rapid colorimetric assay for cellular growth and survival: application to proliferation and cytotoxicity assays. J Immunol Methods, 1983. 65(1-2): p. 55-63). The viability test was performed in culture plates of 96 wells. […] After 72 h, the supernatant was discarded and the cells washed twice with phosphate buffered saline (PBS) at pH 7.4 and incubated at 37° C. for 3 h with 100 μl of 0.5 mg/ml MTT reagent (3-(4,5-dimethylthiazol-2-yl)-2,5-diphenyl tetrazolium bromide) in PBS. The supernatant was removed and the reaction was stopped with 100 μl of dimethyl sulfoxide (DMSO). Absorbance values were determined at 540 nm using a SpectraMax™ 190 automatic plate reader (Molecular Devices, USA).
The results were expressed as a percentage of cell viability relative to the untreated control at time zero (initial number of cells). Absorbance values were determined at 540 nm. The results were expressed as the average ±standard error of the mean (SEM) of 5 independent experiments. Statistical significance between the groups were determined by a one-way ANOVA test (*: p<0.05, **: p<0.01).

vitronectin = test: Extracellular matrix molecules by fluorescence microscopy; assay type: cell-based, human; details: FN1 cells, 50 ng/ml, 48 h, 10% FBS
From the text: as §1, §2, §3
Mouse monoclonal [VN58-1] […]

collagen I = test: as above; assay type: cell-based, human; details: FN1 cells, 50 ng/ml, 48 h, 10% FBS
From the text: as §1, §2, §3
Mouse monoclonal to Collagen type I [Col-I] (abcam): 1/1000

FN1 fibroblasts [4] = test: Cell cycle phases by propidium iodide flow cytometry; assay type: cell-based, human; details: 48 hours
Experimental: The distribution of cells in the various cell cycle phases was determined by the content or amount of propidium iodide (PI) incorporated into the cell, measured by flow cytometry (Vindelov, L. L., I. J. Christensen, and N. I. Nissen, Standardization of high-resolution flow cytometric DNA analysis by the simultaneous use of chicken and trout red blood cells as internal reference standards. Cytometry, 1983. 3(5): p. 328-31). […] After treatment, the FN1 cell suspensions were resuspended in 70% ethanol and kept in a freezer at −20° C. for subsequent analysis of cell cycle phases. At the time of the experiment, cells were incubated in a PBS solution: 950 μl of PBS, 40 μl of PI (1 mg/ml) and 10 μl of Rnase: (10 mg/ml), to assess the quantity and integrity of DNA in the cell cycle phases. The results obtained by the acquisition program CellQuest™ acquired on a FACScalibur™ flow cytometer (Becton and Dickson, USA) were analyzed by FACS ModFit™ 2.8. The DNA content was expressed as mean percentage±standard error of the mean (SEM) of 3 independent experiments (Student's t test) of cells distributed in the different cell cycle phases: apoptotic cells, G0/G1, S and G2/M.

[5] = 125 μg/ml, 25° C., sodium phosphate buffer, pH 6.0 to 8.0, 24 hours
Experimental: Measurement of the structural integrity of the peptide was carried out using sodium phosphate buffer at various pH values (6.0, 6.4, 6.8, 7.0, 7.4, 8.0) containing 125 μg/ml of the peptide. Peptide solutions were incubated overnight at room temperature (25° C.). Analyses of circular dichroism (CD) were performed on a J-810 spectropolarimeter controlled by Spectra Manager™ software (JASCO), using cuvettes with optical path length of 0.1 cm (Biotechnology Center—Instituto Butantan). The CD spectra were recorded in the range 183-260 nm every 0.1 nm. The spectrum of each sample was subtracted from the spectrum of the buffer without peptide.

[6] = 25 ng/ml, p<0.05 versus control 1% FBS
[7] = 50 ng/ml, p<0.001 versus control 1% FBS

DYFKDGKDVN [LONO-Q]
morphological changes induced by serum deprivation (TEM) (FN1 fibroblasts [1]): retards most of the effects observed in serum deprived cells | production of laminin (laminin): increased amounts | ROS generation (FN1 cells; normal cell growth (10% FBS)): no statistically significant decrease in ROS generation | ROS production (FN1 cells; [6]): statistically significant decrease of ROS production | ROS production (FN1 cells; [7]): statistically significant decrease of ROS production | proliferation / cytoprotection (CFDA-SE staining) [2, 6]: significant cytoprotection | proliferation / cytoprotection (CFDA-SE staining) [2, 7]: significant cytoprotection | proliferation rate (CFDA-SE staining) ([2]; 25 ng/ml): statistically significant increase in the proliferation rate | proliferation rate (CFDA-SE staining) ([2]; 50 ng/ml): statistically significant increase in the proliferation rate | production of fibronectin (fibronectin): increased amounts | cellular proliferation (MTT), significance ([3]; 10% FBS, 50 ng/ml, p<0.05): statistically significant results | cell viability (MTT) ([3]; HUVECs, 1% FBS (serum deprivation), dose response): stimulated cell viability in a dose-dependent manner | cell viability (MTT), significance relative to untreated control (1% FBS) ([3]; HUVECs, 25 ng/ml): statistically significant results | cell viability (MTT), significance relative to untreated control (1% FBS) ([3]; HUVECs, 50 ng/ml): statistically significant results | cellular proliferation (MTT) ([3]; normal conditions (10% FBS), dose response): stimulated the cellular proliferation in a dose-dependent manner | production of vitronectin (vitronectin): increased amounts | production of collagen I (collagen I): increased amounts | apoptotic cells (fragmented DNA) (FN1 fibroblasts [4]; 1% FBS, 50 ng/ml, n=3, mean±SEM, p<0.01 vs. control 1% FBS): 8.1±1.1% | cells in S phase of the cell cycle (FN1 fibroblasts [4]; 1% FBS, 50 ng/ml, n=3, mean±SEM, p<0.05 vs. control 1% FBS): 17.2±1.5% | S phase of the cell cycle, dose dependence (FN1 fibroblasts [4]; 1% FBS, 25 or 50 ng/ml): apparent dose-dependent increase of the S phase | cells in G2/M (FN1 fibroblasts [4]; 10% FBS, 50 ng/ml, n=3, mean±SEM, p<0.05 vs. control 10% FBS): 18.4±2.5% | Stability (circular dichroism) [5]: remains stable
